Test systems include CAKI-1; A498; HL-60; SK-MEL-2; IGROV-1; SF-268; SK-MEL-28; OVCAR-8; UACC-62; HCT-15; RXF 393; ACHN; SF-295; OVCAR-4; SK-OV-3; COLO 205.
Common to all, as to assay: DTP human tumour cell line panel, 48 h

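Compound exposure: 48 hours, 5 concentrations, 96-well plates. GI50 = concentration required for 50% inhibition of growth.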 Active and inactive are the calls of the source. Cut-off read from the data, not from the text of the source: active = GI50 up to about 1.1 µM and inactive = higher. Some results are limits rather than exact numbers.

As to `COc1ccc(CN2CCC/C=C/CC(Cl)(Cl)C2=O)cc1`, the GI50 (as a rule, the concentration at which growth is held to half of that of the control) in the assay on CAKI-1 is 38.4 µM (inactive); in the assay with A498, 19.2 µM (inactive); with HL-60, 28.2 µM (inactive); in the assay with SK-MEL-2, 19.8 µM (inactive); in the assay on IGROV-1 it was 38.4 µM (inactive); in the assay on SF-268, 26.6 µM (inactive). Besides, the GI50 was 46.7 µM (inactive) with SK-MEL-28; 40 µM (inactive) in the assay on OVCAR-8; 43 µM (inactive) in the assay on UACC-62; 34.2 µM in the assay on HCT-15; 17 µM (inactive) in the assay on RXF 393; 21 µM (inactive) in the assay with ACHN. Besides, the GI50 with SF-295 was 20.5 µM (inactive); with OVCAR-4, 23 µM (inactive); in the assay on SK-OV-3 it was 27.9 µM (inactive); in the assay with COLO 205 it was 20.4 µM (inactive).

Consider `Cc1ccc(S(=O)(=O)N/N=C/C(C)C)cc1`, for which the GI50 in the assay with CAKI-1, in the assay on A498, with HL-60, in the assay with SK-MEL-2, in the assay on IGROV-1 and in the assay with SF-268 was > 100 µM (inactive) each time. The GI50 with OVCAR-8 was > 100 µM (inactive); in the assay on UACC-62, > 100 µM (inactive); in the assay on HCT-15, more than 100 µM; in the assay with RXF 393, > 100 µM (inactive); in the assay on ACHN, > 100 µM (inactive); in the assay with SF-295 it was > 100 µM (inactive). Further, the GI50 in the assay on OVCAR-4, in the assay with SK-OV-3 and in the assay with COLO 205 was > 100 µM (inactive) in each case.

Regarding `C=CSCCC(N)C(=O)O` (configuration not stated), the GI50 in the assay on CAKI-1, with A498, in the assay on HL-60, with IGROV-1, in the assay on SF-268 and in the assay with SK-MEL-28 was > 100 µM (inactive) throughout. Besides, the GI50 in the assay with OVCAR-8 was > 100 µM (inactive); in the assay with UACC-62 it was > 100 µM (inactive); in the assay on HCT-15, more than 100 µM; with RXF 393, > 100 µM (inactive); in the assay on ACHN, > 100 µM (inactive); in the assay on SF-295, > 100 µM (inactive). Besides, the GI50 with OVCAR-4 and with COLO 205 was > 100 µM (inactive) throughout.

As to `Cc1cccc(-c2nc3c(C(=O)NCCN(C)C)cccc3[nH]2)c1`, the GI50 in the assay on CAKI-1 is 2.23 µM (inactive); with A498, 1.54 µM (inactive); with HL-60 it was 2.29 µM (inactive); in the assay on SK-MEL-2, 1.86 µM (inactive); in the assay with IGROV-1, 0.83 µM (active); in the assay with SF-268, 1.58 µM (inactive). The GI50 in the assay with SK-MEL-28 is 2.04 µM (inactive); in the assay on OVCAR-8, 0.708 µM (active); with UACC-62, 1.8 µM (inactive); in the assay on HCT-15 it was 0.414 µM; with RXF 393, 1.19 µM (inactive); with ACHN, 2.26 µM (inactive). Further, the GI50 in the assay with SF-295 was 1.1 µM (active); in the assay on OVCAR-4, 0.809 µM (active); in the assay on SK-OV-3 it was 1.49 µM (inactive); with COLO 205 it was 0.363 µM (active).

Turning to `COc1ccc2c(c1)OC[C@@H]1c3cc4c(cc3O[C@H]21)OCO4`, the GI50 in the assay with CAKI-1 is 58.5 µM (inactive); in the assay on A498, > 100 µM (inactive); in the assay with HL-60, > 100 µM (inactive); with SK-MEL-2, > 100 µM (inactive); in the assay on SF-268 it was 75 µM (inactive); with SK-MEL-28 it was > 100 µM (inactive). Further, the GI50 was > 100 µM (inactive) in the assay on OVCAR-8; more than 100 µM in the assay with HCT-15; > 100 µM (inactive) in the assay with RXF 393; > 100 µM (inactive) in the assay with ACHN; > 100 µM (inactive) in the assay on SF-295; 35.7 µM (inactive) with OVCAR-4. Besides, the GI50 with SK-OV-3 and with COLO 205 was > 100 µM (inactive) each time.

As for `Cc1[nH]c2ccccc2c1/C=C/c1c(C)[nH]c2ccccc12`, the GI50 in the assay with CAKI-1, in the assay with A498, in the assay with HL-60, in the assay on SK-MEL-2, in the assay with IGROV-1 and in the assay with SK-MEL-28 was > 100 µM (inactive) throughout. Also, the GI50 was > 100 µM (inactive) with OVCAR-8; > 100 µM (inactive) with UACC-62; more than 100 µM in the assay on HCT-15; > 100 µM (inactive) in the assay with RXF 393; > 100 µM (inactive) in the assay on ACHN; > 100 µM (inactive) in the assay with SF-295. The GI50 in the assay with OVCAR-4 and in the assay on SK-OV-3 was > 100 µM (inactive) each time.

In the case of `COc1ccc(-c2cc(C(=O)Nc3cc(C(F)(F)F)cc(C(F)(F)F)c3)c3ccccc3n2)cc1`, the GI50 with CAKI-1 is 11.3 µM (inactive); in the assay on A498, 15.1 µM (inactive); with HL-60, 21.3 µM (inactive); in the assay with SK-MEL-2 it was 12.9 µM (inactive); in the assay on IGROV-1, 12.6 µM (inactive); in the assay with SF-268, 14.4 µM (inactive). Moreover, the GI50 in the assay with SK-MEL-28 is 27.7 µM (inactive); with OVCAR-8, 4.27 µM (inactive); in the assay with UACC-62, 21.6 µM (inactive); with HCT-15, 11.4 µM; with RXF 393, 5.12 µM (inactive); in the assay on ACHN, 12.5 µM (inactive). In addition, the GI50 in the assay on SF-295 is 10.3 µM (inactive); in the assay on OVCAR-4, 8.3 µM (inactive); in the assay on COLO 205, 13.4 µM (inactive).

Consider `COc1cc2c(c(OC)c1OC)CCNC2C1=C(O)COC1=O` (configuration not stated), for which the GI50 in the assay on CAKI-1 is > 100 µM (inactive); in the assay with A498, > 100 µM (inactive); with HL-60 it was > 100 µM (inactive); in the assay with SK-MEL-2, 61.9 µM (inactive); in the assay with IGROV-1 it was > 100 µM (inactive); with SF-268 it was > 100 µM (inactive). The GI50 is > 100 µM (inactive) in the assay on OVCAR-8; 55.6 µM (inactive) in the assay with UACC-62; more than 100 µM with HCT-15; > 100 µM (inactive) with RXF 393; > 100 µM (inactive) with ACHN; > 100 µM (inactive) in the assay on SF-295. Also, the GI50 in the assay with OVCAR-4, in the assay on SK-OV-3 and in the assay on COLO 205 was > 100 µM (inactive) each time.

Turning to `N#C/C(=C1\OC(=O)C(c2ccc(Br)cc2)=C1O)c1ccc(Br)cc1`, the GI50 is 17.3 µM (inactive) in the assay on CAKI-1; 15.5 µM (inactive) in the assay on A498; 11.6 µM (inactive) with HL-60; 14.2 µM (inactive) in the assay with IGROV-1; 14.7 µM (inactive) in the assay with SF-268; 17.2 µM (inactive) in the assay on SK-MEL-28. For the same compound, the GI50 in the assay on OVCAR-8 was 12.1 µM (inactive); with UACC-62 it was 11.6 µM (inactive); with RXF 393 it was 12 µM (inactive); in the assay on ACHN, 15.7 µM (inactive); in the assay with SF-295, 17.7 µM (inactive); in the assay with OVCAR-4 it was 16.5 µM (inactive). The figures for the GI50 with SK-OV-3 and in the assay with COLO 205 were 18.5 µM (inactive) and 17.9 µM (inactive), respectively.

With `O=C(Nc1nnc(S)[nH]1)C(=O)C(C(=O)c1ccc2ccccc2c1)C1OC(=O)c2ccccc21` (configuration not stated), the GI50 in the assay on CAKI-1 is 30.3 µM (inactive); with A498, > 100 µM (inactive); in the assay with SK-MEL-2 it was 23 µM (inactive); in the assay on IGROV-1 it was 20.4 µM (inactive); with SF-268, 16.6 µM (inactive); in the assay with SK-MEL-28, 14.8 µM (inactive). Besides, the GI50 in the assay on OVCAR-8 was 11.9 µM (inactive); in the assay with UACC-62, 15.6 µM (inactive); in the assay with HCT-15, 27.9 µM; in the assay with RXF 393, 10.6 µM (inactive); with ACHN, > 100 µM (inactive); in the assay with OVCAR-4, 16.2 µM (inactive). The figures for the GI50 in the assay with SK-OV-3 and in the assay with COLO 205 were 23.4 µM (inactive) and 15.9 µM (inactive), respectively.

The values are drawn from ChEMBL document CHEMBL1201862, “PubChem BioAssay data set” (2004).
